According to ChEMBL document CHEMBL1131216, “Anhydrolide macrolides. 2. Synthesis and antibacterial activity of 2,3-anhydro-6-O-methyl 11,12-carbazate erythromycin A analogues” (1998):
Values after ≈ are worked out from the molar mass of the structure shown.

Tests used:
Assay type in all cases: functional
[1] = system: Staphylococcus aureus; assay: In vivo antibacterial activity of NCTC-10649 strain of Gram positive bacteria Staphylococcus aureus
[2] = system: Staphylococcus aureus; assay: In vivo antibacterial activity of NCTC-10649 strain of Gram positive bacteria Staphylococcus aureus (95% confidence interval)
[3] = system: Streptococcus pneumoniae; assay: In vivo antibacterial activity of ATCC 6303 strain of Gram positive bacteria Streptococcus pneumoniae (95% confidence interval)
[4] = system: Streptococcus pneumoniae; assay: In vivo antibacterial activity of ATCC 6303 strain of Gram positive bacteria Streptococcus pneumoniae
[5] = system: Streptococcus pneumoniae; assay: In vitro antibacterial activity of 5649 strain of Gram positive bacteria Streptococcus pneumoniae
[6] = system: Staphylococcus aureus; assay: In vitro antibacterial activity of 6538P strain of Gram positive bacteria Staphylococcus aureus
[7] = system: Haemophilus influenzae; assay: In vitro antibacterial activity of DILL strain of Gram negative bacteria Haemophilus influenzae
[8] = system: Streptococcus pneumoniae; assay: In vitro antibacterial activity of 5979 strain of Gram positive bacteria Streptococcus pneumoniae
[9] = system: Streptococcus pyogenes; assay: In vitro antibacterial activity of PIU2584 strain of Gram positive bacteria Streptococcus pyogenes
[10] = system: Streptococcus pyogenes; assay: In vitro antibacterial activity of EES61 strain of Gram positive bacteria Streptococcus pyogenes
[11] = system: Staphylococcus aureus; assay: In vitro antibacterial activity of A-5278 strain of Gram positive bacteria Staphylococcus aureus
[12] = system: Streptococcus pneumoniae; assay: In vitro antibacterial activity of ATCC 6303 strain of Gram positive bacteria Streptococcus pneumoniae
[13] = system: Staphylococcus aureus; assay: In vitro antibacterial activity of A5177 strain of Gram positive bacteria Staphylococcus aureus
[14] = system: Streptococcus pyogenes; assay: In vitro antibacterial activity of 930 strain of Gram positive bacteria Streptococcus pyogenes

SMILES	MIC [1] [µg/mL]	ED50 [2] [mg/kg/day]	ED50 [3] [mg/kg/day]	MIC [4] [µg/mL]	MIC [5] [µg/mL]	MIC [6] [µg/mL]	MIC [7] [µg/mL]	MIC [8] [µg/mL]	MIC [9] [µg/mL]	MIC [10] [µg/mL]	MIC [11] [µg/mL]	MIC [12] [µg/mL]	MIC [13] [µg/mL]	MIC [14] [µg/mL]
CC[C@H]1OC(=O)[C@H](C)[C@@H](O[C@H]2C[C@@](C)(OC)[C@@H](O)[C@H](C)O2)[C@H](C)[C@@H](O[C@@H]2O[C@H](C)C[C@H](N(C)C)[C@H]2O)[C@](C)(OC)C[C@@H](C)C(=O)[C@H](C)[C@@H](O)[C@]1(C)O [CLARITHROMYCIN]	0.39 (≈ 0.521 µM)	22.4	27.2	0.03 (≈ 0.0401 µM)										
CC[C@H]1OC(=O)/C(C)=C/[C@H](C)[C@@H](O[C@@H]2O[C@H](C)C[C@H](N(C)C)[C@H]2O)[C@@](C)(OC)C[C@@H](C)C(=O)[C@H](C)[C@H]2N(NC/C=C/c3ccc([N+](=O)[O-])cc3)C(=O)O[C@]12C	0.2 (≈ 0.259 µM)	50.1	16.8	0.004 (≈ 0.00518 µM)	1 (≈ 1.29 µM)	0.2 (≈ 0.259 µM)	8 (≈ 10.4 µM)	64 (≈ 82.8 µM)	1 (≈ 1.29 µM)	0.06 (≈ 0.0776 µM)	100 (≈ 129 µM)	0.03 (≈ 0.0388 µM)	0.2 (≈ 0.259 µM)	32 (≈ 41.4 µM)
CC[C@H]1OC(=O)/C(C)=C/[C@H](C)[C@@H](O[C@@H]2O[C@H](C)C[C@H](N(C)C)[C@H]2O)[C@@](C)(OC)C[C@@H](C)C(=O)[C@@H](C)[C@H]2N(N)C(=O)O[C@]12C					16 (≈ 26.2 µM)	50 (≈ 81.7 µM)	> 128	> 128	32 (≈ 52.3 µM)	8 (≈ 13.1 µM)	> 100	8 (≈ 13.1 µM)	50 (≈ 81.7 µM)	> 128
CC[C@H]1OC(=O)/C(C)=C/[C@H](C)[C@@H](O[C@@H]2O[C@H](C)C[C@H](N(C)C)[C@H]2O)[C@@](C)(OC)C[C@@H](C)C(=O)[C@H](C)[C@H]2N(NCc3ccc([N+](=O)[O-])cc3)C(=O)O[C@]12C					1 (≈ 1.34 µM)	0.05 (≈ 0.0669 µM)	8 (≈ 10.7 µM)	> 128	1 (≈ 1.34 µM)	0.03 (≈ 0.0402 µM)	> 100	0.03 (≈ 0.0402 µM)	0.05 (≈ 0.0669 µM)	128 (≈ 171 µM)
CC[C@H]1OC(=O)/C(C)=C/[C@H](C)[C@@H](O[C@@H]2O[C@H](C)C[C@H](N(C)C)[C@H]2O)[C@@](C)(OC)C[C@@H](C)C(=O)[C@H](C)[C@H]2N(NC/C=C/c3ccc(NC(C)=O)cc3)C(=O)O[C@]12C					1 (≈ 1.27 µM)	0.2 (≈ 0.255 µM)	4 (≈ 5.1 µM)	> 64	1 (≈ 1.27 µM)	0.06 (≈ 0.0764 µM)	> 100	0.03 (≈ 0.0382 µM)	0.2 (≈ 0.255 µM)	> 64
CC[C@H]1OC(=O)/C(C)=C/[C@H](C)[C@@H](O[C@@H]2O[C@H](C)C[C@H](N(C)C)[C@H]2O)[C@@](C)(OC)C[C@@H](C)C(=O)[C@H](C)[C@H]2N(NCc3ccccc3O)C(=O)O[C@]12C					2 (≈ 2.79 µM)	0.2 (≈ 0.279 µM)	2 (≈ 2.79 µM)	> 64	0.5 (≈ 0.696 µM)	0.03 (≈ 0.0418 µM)	> 100	0.06 (≈ 0.0836 µM)	0.2 (≈ 0.279 µM)	> 64
CC[C@H]1OC(=O)/C(C)=C/[C@H](C)[C@@H](O[C@@H]2O[C@H](C)C[C@H](N(C)C)[C@H]2O)[C@@](C)(OC)C[C@@H](C)C(=O)[C@H](C)[C@H]2N(NCCc3ccccc3)C(=O)O[C@]12C					2 (≈ 2.79 µM)	0.78 (≈ 1.09 µM)	> 64	> 64	2 (≈ 2.79 µM)	0.25 (≈ 0.349 µM)	> 100	0.25 (≈ 0.349 µM)	0.78 (≈ 1.09 µM)	64 (≈ 89.4 µM)
CC[C@H]1OC(=O)/C(C)=C/[C@H](C)[C@@H](O[C@@H]2O[C@H](C)C[C@H](N(C)C)[C@H]2O)[C@@](C)(OC)C[C@@H](C)C(=O)[C@H](C)[C@H]2N(NC/C=C/c3cccc4ccccc34)C(=O)O[C@]12C					1 (≈ 1.29 µM)	0.39 (≈ 0.501 µM)	16 (≈ 20.6 µM)	16 (≈ 20.6 µM)	1 (≈ 1.29 µM)	0.125 (≈ 0.161 µM)	25 (≈ 32.1 µM)	0.125 (≈ 0.161 µM)	0.39 (≈ 0.501 µM)	8 (≈ 10.3 µM)
CC[C@H]1OC(=O)/C(C)=C/[C@H](C)[C@@H](O[C@@H]2O[C@H](C)C[C@H](N(C)C)[C@H]2O)[C@@](C)(OC)C[C@@H](C)C(=O)[C@H](C)[C@H]2N(NCc3cc(O)ccc3O)C(=O)O[C@]12C					2 (≈ 2.73 µM)	3.1 (≈ 4.22 µM)	32 (≈ 43.6 µM)	128 (≈ 174 µM)	4 (≈ 5.45 µM)	0.25 (≈ 0.341 µM)	> 100	0.25 (≈ 0.341 µM)	3.1 (≈ 4.22 µM)	128 (≈ 174 µM)
CC[C@H]1OC(=O)/C(C)=C/[C@H](C)[C@@H](O[C@@H]2O[C@H](C)C[C@H](N(C)C)[C@H]2O)[C@@](C)(OC)C[C@@H](C)C(=O)[C@H](C)[C@H]2N(NCc3ccncc3)C(=O)O[C@]12C					1 (≈ 1.42 µM)	0.39 (≈ 0.555 µM)	8 (≈ 11.4 µM)	> 128	0.5 (≈ 0.711 µM)	0.03 (≈ 0.0427 µM)	> 100	0.03 (≈ 0.0427 µM)	0.2 (≈ 0.285 µM)	> 128
CC[C@H]1OC(=O)/C(C)=C/[C@H](C)[C@@H](O[C@@H]2O[C@H](C)C[C@H](N(C)C)[C@H]2O)[C@@](C)(OC)C[C@@H](C)C(=O)[C@H](C)[C@H]2N(N)C(=O)O[C@]12C					1 (≈ 1.63 µM)	1.56 (≈ 2.55 µM)	32 (≈ 52.3 µM)	> 64	1 (≈ 1.63 µM)	0.25 (≈ 0.409 µM)	> 100	0.25 (≈ 0.409 µM)	1.56 (≈ 2.55 µM)	> 64
CC[C@H]1OC(=O)/C(C)=C/[C@H](C)[C@@H](O[C@@H]2O[C@H](C)C[C@H](N(C)C)[C@H]2O)[C@@](C)(OC)C[C@@H](C)C2=NN3C(=O)O[C@@]1(C)[C@H]3[C@H]2C					> 128	> 100	> 128	> 128	> 128	> 128	> 100	> 128	> 100	> 128
CC[C@H]1OC(=O)/C(C)=C/[C@H](C)[C@@H](O[C@@H]2O[C@H](C)C[C@H](N(C)C)[C@H]2O)[C@@](C)(OC)C[C@@H](C)C(=O)[C@H](C)[C@H]2N(NCCCc3ccc([N+](=O)[O-])cc3)C(=O)O[C@]12C					1 (≈ 1.29 µM)	0.1 (≈ 0.129 µM)	8 (≈ 10.3 µM)	64 (≈ 82.6 µM)	1 (≈ 1.29 µM)	0.03 (≈ 0.0387 µM)	> 100	0.03 (≈ 0.0387 µM)	0.1 (≈ 0.129 µM)	64 (≈ 82.6 µM)
CC[C@H]1OC(=O)/C(C)=C/[C@H](C)[C@@H](O[C@@H]2O[C@H](C)C[C@H](N(C)C)[C@H]2O)[C@@](C)(OC)C[C@@H](C)C(=O)[C@H](C)[C@H]2N(NCCCc3ccccc3)C(=O)O[C@]12C					2 (≈ 2.74 µM)	0.1 (≈ 0.137 µM)	16 (≈ 21.9 µM)	64 (≈ 87.7 µM)	1 (≈ 1.37 µM)	0.06 (≈ 0.0822 µM)	50 (≈ 68.5 µM)	0.125 (≈ 0.171 µM)	0.1 (≈ 0.137 µM)	32 (≈ 43.8 µM)
CC[C@H]1OC(=O)/C(C)=C/[C@H](C)[C@@H](O[C@@H]2O[C@H](C)C[C@H](N(C)C)[C@H]2O)[C@@](C)(OC)C[C@@H](C)C(=O)[C@H](C)[C@H]2N(NCc3ccc(N)cc3)C(=O)O[C@]12C					1 (≈ 1.39 µM)	0.78 (≈ 1.09 µM)	16 (≈ 22.3 µM)	> 128	1 (≈ 1.39 µM)	0.06 (≈ 0.0837 µM)	> 100	0.25 (≈ 0.349 µM)	0.78 (≈ 1.09 µM)	> 128
CC[C@H]1OC(=O)/C(C)=C/[C@H](C)[C@@H](O[C@@H]2O[C@H](C)C[C@H](N(C)C)[C@H]2O)[C@@](C)(OC)C[C@@H](C)C(=O)[C@H](C)[C@H]2N(NCCCc3ccc(OC)cc3)C(=O)O[C@]12C					2 (≈ 2.63 µM)	0.39 (≈ 0.513 µM)	16 (≈ 21.1 µM)	> 64	1 (≈ 1.32 µM)	0.03 (≈ 0.0395 µM)	> 100	0.06 (≈ 0.0789 µM)	0.39 (≈ 0.513 µM)	64 (≈ 84.2 µM)
CC[C@H]1OC(=O)/C(C)=C/[C@H](C)[C@@H](O[C@@H]2O[C@H](C)C[C@H](N(C)C)[C@H]2O)[C@@](C)(OC)C[C@@H](C)C(=O)[C@H](C)[C@H]2N(NCCCc3ccc(Cl)cc3Cl)C(=O)O[C@]12C					2 (≈ 2.5 µM)	0.39 (≈ 0.488 µM)	16 (≈ 20 µM)	8 (≈ 10 µM)	1 (≈ 1.25 µM)	0.06 (≈ 0.0751 µM)	25 (≈ 31.3 µM)	0.125 (≈ 0.156 µM)	0.39 (≈ 0.488 µM)	8 (≈ 10 µM)
CC[C@H]1OC(=O)/C(C)=C/[C@H](C)[C@@H](O[C@@H]2O[C@H](C)C[C@H](N(C)C)[C@H]2O)[C@@](C)(OC)C[C@@H](C)C(=O)[C@H](C)[C@H]2N(NC/C=C/c3ccccc3)C(=O)O[C@]12C					1 (≈ 1.37 µM)	0.02 (≈ 0.0275 µM)	8 (≈ 11 µM)	32 (≈ 44 µM)	0.5 (≈ 0.687 µM)	0.06 (≈ 0.0824 µM)	100 (≈ 137 µM)	0.03 (≈ 0.0412 µM)	0.1 (≈ 0.137 µM)	32 (≈ 44 µM)
CC[C@H]1OC(=O)/C(C)=C/[C@H](C)[C@@H](O[C@@H]2O[C@H](C)C[C@H](N(C)C)[C@H]2O)[C@@](C)(OC)C[C@@H](C)C(=O)[C@H](C)[C@H]2N(NCCCc3ccccc3O)C(=O)O[C@]12C					2 (≈ 2.68 µM)	0.2 (≈ 0.268 µM)	16 (≈ 21.4 µM)	> 128	2 (≈ 2.68 µM)	0.03 (≈ 0.0402 µM)	> 100	0.03 (≈ 0.0402 µM)	0.2 (≈ 0.268 µM)	> 128
CC[C@H]1OC(=O)/C(C)=C/[C@H](C)[C@@H](O[C@@H]2O[C@H](C)C[C@H](N(C)C)[C@H]2O)[C@@](C)(OC)C[C@@H](C)C(=O)[C@H](C)[C@H]2N(NCc3ccc(OC)cc3)C(=O)O[C@]12C					2 (≈ 2.73 µM)	0.2 (≈ 0.273 µM)	8 (≈ 10.9 µM)	> 64	1 (≈ 1.37 µM)	0.03 (≈ 0.041 µM)	> 100	0.125 (≈ 0.171 µM)	0.2 (≈ 0.273 µM)	> 64
